The results in this text go back to patent US10131660B2, “Tetrahydro-azepinoquinolines as agonists of the 5-HT2C receptor” (Sunnylife Pharma, Inc., priority 2014, dated 2018).

Where only a bound is given, the exact number is not on record here.

The target in the experiment is T1, human 5-HT2C receptor (Homo sapiens, UniProt P28335).
T1 construct: host or cells: CHO cells, stably expressing
T1 sequence (P28335 33-458): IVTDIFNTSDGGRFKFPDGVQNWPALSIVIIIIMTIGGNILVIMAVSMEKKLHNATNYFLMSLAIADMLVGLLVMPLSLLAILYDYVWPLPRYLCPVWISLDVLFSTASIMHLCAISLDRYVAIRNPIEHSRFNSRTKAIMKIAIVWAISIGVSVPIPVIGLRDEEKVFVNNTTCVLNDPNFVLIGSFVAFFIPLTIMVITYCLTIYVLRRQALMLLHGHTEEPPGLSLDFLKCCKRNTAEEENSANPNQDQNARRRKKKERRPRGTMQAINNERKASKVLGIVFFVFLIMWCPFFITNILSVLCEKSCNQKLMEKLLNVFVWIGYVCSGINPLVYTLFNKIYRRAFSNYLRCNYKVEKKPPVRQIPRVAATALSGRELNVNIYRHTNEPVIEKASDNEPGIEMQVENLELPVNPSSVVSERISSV
Description: Functional calcium mobilization (FLIPR) assay, 5-HT2C. Particulars: CHO cells stably expressing human 5-HT2C receptor; agonist-stimulated Ca2+ flux. It counts as cell-based. The procedure: (a) Cell Culture for the Human 5-HT2A, Human 5-HT2B, and Human 5-HT2C Receptors:
CHO cells stably expressing the human 5-HT2A, human 5-HT2B, and human 5-HT2C receptors were purchased from PerkinElmer (Waltham, Mass.). Cells were grown in advance DMEM/F12, 1% dialyzed fetal bovine serum, 2 mM L-glutamine, 100 units/mL penicillin, 1 mg/mL streptomycin, and 0.4 mg/ml Geneticin at 37° C. in 5% CO2 atmosphere.
(b) Calcium Mobilization Assays:
Cells were seeded in black clear-bottom 384-well plates at a density of 10,000 cells/well and incubated overnight at 37° C. in 5% CO2/95% atmosphere. After removing medium, cells were loaded with modified HBSS buffer (137.9 mM NaCl, 5.3 mM KCl, 5.5 mM glucose, 20 mM Hepes, 0.49 mM MgCl2, 1.26 mM CaCl2, 0.41 mM MgSO4, 0.33 mM Na2HPO4, and 0.44 mM KH2PO4) containing the FLIPR Calcium 4 dye (Molecular Devices, CA) and probenecid ([…]) and incubated at 37° C. for 60 min, according to the manufacturer's instructions. Compounds were diluted in HBSS buffer containing 6% DMSO as six folds. Final DMSO concentration in the assay was 1%. The dose-response of agonist-stimulated Ca^2+ flux was measured on a Fluorometric Imaging Plate Reader (FLIPR Tetra) (Molecular Devices, CA).
Data were analyzed by nonlinear least squares curve fitting using GraphPad Prism 5.0 software (GraphPad Software, CA). Agonist stimulation in FLIPR assay was fitted to sigmoidal dose response curves using the equation Y=Bottom+(Top-Bottom)/(1+10^((Log EC50−X)*Hill Slope)), where X is the logarithm of concentration of compounds. Y is the fluorescent response, EC50 is the concentration of compound producing 50% of maximum response. Maximum responses (Emax) of compounds were calculated based on % of stimulation relative to the response of α-methyl-5HT (100%). EC50's are representative of two or three separate experiments performed in triplicates.
A general note: A change in cytosolic calcium serves as a functional read-out for many receptors and channels.
Take `Clc1ccc(C2CC2)c2nc3c(cc12)CCNCC3`: the EC50 is less than 1 nM.
Turning to `Fc1cc(C2CC2)c2nc3c(cc2c1F)CCNCC3`, the concentration giving a half-maximal response (EC50) was less than 5 nM.
On to `Cc1c2c(nc3c(C4CC4)ccc(Cl)c13)CCNCC2`, for which the 50% effective concentration (EC50) was less than 15 nM.
Then `Fc1cc(C2CC2)c2nc3c(cc2c1Cl)CCNCC3`, with less than 5 nM; and `Clc1ccc(OC2CCCCC2)c2cc3c(nc12)CCNCC3`, with less than 50 nM.
As for `Cc1c2c(nc3c(Cl)ccc(OC4CCCCC4)c13)CCNCC2`, the figure is less than 5 nM.
As for `Fc1cc(F)c2cc3c(nc2c1C1CC1)CCNCC3`, the figure is less than 5 nM; as for `Cc1c2c(nc3c(C4CC4)c(F)cc(F)c13)CCNCC2`, less than 5 nM; as for `Cc1c2c(nc3c(OC4CCCCCC4)ccc(F)c13)CCNCC2`, less than 10 nM.
Regarding `Fc1cccc(Oc2ccc(Cl)c3nc4c(cc23)CCNCC4)c1`, the 50% effective concentration (EC50) is less than 20 nM.
Then `Cc1c2c(nc3c(OC4CCCCC4)ccc(F)c13)CCNCC2`, with less than 10 nM.

In general, EC50 refers to the concentration needed to bring the measured effect to its halfway point.
